The source made the active and inactive calls. Cut-off read from the data, not from the text of the source, for most assays here: actives have a measured Kd and inactives only a lower limit.
How the values were obtained:
[1] = molecular target: T1, Exosome RNA helicase MTR4 (Homo sapiens, UniProt P42285)
T1 sequence (P42285 whole entry): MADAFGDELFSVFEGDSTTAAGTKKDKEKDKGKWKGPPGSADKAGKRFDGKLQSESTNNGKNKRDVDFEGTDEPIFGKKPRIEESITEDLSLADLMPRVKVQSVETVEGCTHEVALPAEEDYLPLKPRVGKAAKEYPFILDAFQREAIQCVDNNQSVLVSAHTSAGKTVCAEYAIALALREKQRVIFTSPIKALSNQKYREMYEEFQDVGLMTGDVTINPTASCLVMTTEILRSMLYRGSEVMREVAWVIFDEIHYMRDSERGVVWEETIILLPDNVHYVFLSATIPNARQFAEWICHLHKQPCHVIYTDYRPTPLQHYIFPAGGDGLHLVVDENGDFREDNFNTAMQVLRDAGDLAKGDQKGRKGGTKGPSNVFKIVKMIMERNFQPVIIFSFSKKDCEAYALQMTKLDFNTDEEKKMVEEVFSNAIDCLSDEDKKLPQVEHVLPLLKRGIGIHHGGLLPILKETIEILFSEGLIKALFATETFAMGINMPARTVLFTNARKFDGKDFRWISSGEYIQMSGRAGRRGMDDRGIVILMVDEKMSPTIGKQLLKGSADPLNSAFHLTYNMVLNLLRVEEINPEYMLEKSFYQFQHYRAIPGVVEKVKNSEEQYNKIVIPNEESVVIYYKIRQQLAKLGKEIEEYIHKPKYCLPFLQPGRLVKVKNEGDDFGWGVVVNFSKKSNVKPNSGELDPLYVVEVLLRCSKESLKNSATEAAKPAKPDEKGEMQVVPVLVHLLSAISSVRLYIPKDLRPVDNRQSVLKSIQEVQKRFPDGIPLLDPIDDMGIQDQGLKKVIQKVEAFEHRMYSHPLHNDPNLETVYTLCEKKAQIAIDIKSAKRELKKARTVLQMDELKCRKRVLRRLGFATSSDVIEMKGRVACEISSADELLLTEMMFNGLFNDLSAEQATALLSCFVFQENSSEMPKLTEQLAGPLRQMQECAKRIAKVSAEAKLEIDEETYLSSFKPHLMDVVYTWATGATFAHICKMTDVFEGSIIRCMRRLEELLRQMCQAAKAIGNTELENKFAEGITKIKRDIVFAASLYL

[2] = molecular target: Adenylate kinase 2, mitochondrial (Homo sapiens, UniProt P54819)
[3] = molecular target: Cyclin-dependent kinase 3 (Homo sapiens, UniProt Q00526)
Chain of Cyclin-dependent kinase 3 (Q00526 whole entry): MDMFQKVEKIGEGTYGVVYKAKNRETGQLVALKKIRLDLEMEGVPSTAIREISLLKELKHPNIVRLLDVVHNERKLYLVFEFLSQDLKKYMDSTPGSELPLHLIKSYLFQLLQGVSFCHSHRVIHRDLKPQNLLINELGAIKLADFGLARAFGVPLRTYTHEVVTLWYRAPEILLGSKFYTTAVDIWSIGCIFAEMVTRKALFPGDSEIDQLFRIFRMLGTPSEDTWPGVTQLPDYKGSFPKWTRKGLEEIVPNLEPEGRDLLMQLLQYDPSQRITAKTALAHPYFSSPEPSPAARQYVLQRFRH

[4] = molecular target: Serine/threonine-protein kinase SIK3 (Homo sapiens, UniProt Q9Y2K2)
Chain of Serine/threonine-protein kinase SIK3 (Q9Y2K2 whole entry): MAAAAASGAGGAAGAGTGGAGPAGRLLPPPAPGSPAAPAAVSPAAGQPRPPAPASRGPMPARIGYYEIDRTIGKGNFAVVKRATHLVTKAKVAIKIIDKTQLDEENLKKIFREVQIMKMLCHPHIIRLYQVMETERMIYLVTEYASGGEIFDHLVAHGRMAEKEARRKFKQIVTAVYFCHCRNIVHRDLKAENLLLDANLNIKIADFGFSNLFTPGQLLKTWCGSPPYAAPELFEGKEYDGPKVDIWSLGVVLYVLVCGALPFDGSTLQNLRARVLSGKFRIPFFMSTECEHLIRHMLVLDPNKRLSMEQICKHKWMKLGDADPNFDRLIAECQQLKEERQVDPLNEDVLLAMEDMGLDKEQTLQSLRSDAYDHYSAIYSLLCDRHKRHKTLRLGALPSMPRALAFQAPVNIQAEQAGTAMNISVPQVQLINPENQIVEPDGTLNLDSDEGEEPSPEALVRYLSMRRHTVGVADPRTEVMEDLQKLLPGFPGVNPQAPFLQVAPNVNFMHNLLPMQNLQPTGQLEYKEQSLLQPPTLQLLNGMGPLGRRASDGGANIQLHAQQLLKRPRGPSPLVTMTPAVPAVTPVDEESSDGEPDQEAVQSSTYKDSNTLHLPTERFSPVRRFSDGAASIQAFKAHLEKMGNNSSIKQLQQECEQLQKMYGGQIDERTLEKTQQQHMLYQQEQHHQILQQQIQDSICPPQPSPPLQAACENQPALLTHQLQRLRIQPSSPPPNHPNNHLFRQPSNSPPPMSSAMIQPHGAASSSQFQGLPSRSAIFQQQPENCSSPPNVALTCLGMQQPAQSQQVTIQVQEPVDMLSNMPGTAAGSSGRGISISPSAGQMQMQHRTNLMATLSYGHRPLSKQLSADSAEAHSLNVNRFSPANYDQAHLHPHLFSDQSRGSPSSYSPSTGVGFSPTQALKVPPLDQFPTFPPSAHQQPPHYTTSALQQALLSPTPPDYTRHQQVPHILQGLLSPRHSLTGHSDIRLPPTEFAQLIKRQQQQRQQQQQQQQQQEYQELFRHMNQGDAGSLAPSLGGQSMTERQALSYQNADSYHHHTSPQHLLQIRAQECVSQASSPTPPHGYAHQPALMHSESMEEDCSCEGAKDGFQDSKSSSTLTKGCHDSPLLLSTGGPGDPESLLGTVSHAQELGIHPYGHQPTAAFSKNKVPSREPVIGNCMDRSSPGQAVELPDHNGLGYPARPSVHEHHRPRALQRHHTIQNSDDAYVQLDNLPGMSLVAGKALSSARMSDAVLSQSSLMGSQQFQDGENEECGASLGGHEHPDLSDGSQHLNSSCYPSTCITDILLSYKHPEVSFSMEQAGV

[5] = molecular target: Calcium/calmodulin-dependent protein kinase type II subunit delta (Homo sapiens, UniProt Q13557)
LIM domain kinase 2 = LIM domain kinase 2 (Homo sapiens, UniProt P53671)
[6] = molecular target: Serine/threonine-protein kinase 16 (Homo sapiens, UniProt O75716)
Chain of Serine/threonine-protein kinase 16 (O75716 whole entry, the tested form may be a part): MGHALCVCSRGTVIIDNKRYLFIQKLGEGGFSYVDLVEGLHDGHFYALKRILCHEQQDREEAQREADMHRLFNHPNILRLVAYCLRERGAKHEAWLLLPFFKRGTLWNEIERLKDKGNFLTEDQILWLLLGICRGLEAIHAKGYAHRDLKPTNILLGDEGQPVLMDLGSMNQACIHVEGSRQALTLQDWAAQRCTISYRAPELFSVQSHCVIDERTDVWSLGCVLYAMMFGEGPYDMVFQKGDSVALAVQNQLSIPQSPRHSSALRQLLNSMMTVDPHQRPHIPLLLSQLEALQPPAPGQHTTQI

LIM domain kinase 1 = LIM domain kinase 1 (Homo sapiens, UniProt P53667)
[7] = molecular target: Glycogen synthase kinase-3 alpha (Homo sapiens, UniProt P49840)
Chain of Glycogen synthase kinase-3 alpha (P49840 whole entry): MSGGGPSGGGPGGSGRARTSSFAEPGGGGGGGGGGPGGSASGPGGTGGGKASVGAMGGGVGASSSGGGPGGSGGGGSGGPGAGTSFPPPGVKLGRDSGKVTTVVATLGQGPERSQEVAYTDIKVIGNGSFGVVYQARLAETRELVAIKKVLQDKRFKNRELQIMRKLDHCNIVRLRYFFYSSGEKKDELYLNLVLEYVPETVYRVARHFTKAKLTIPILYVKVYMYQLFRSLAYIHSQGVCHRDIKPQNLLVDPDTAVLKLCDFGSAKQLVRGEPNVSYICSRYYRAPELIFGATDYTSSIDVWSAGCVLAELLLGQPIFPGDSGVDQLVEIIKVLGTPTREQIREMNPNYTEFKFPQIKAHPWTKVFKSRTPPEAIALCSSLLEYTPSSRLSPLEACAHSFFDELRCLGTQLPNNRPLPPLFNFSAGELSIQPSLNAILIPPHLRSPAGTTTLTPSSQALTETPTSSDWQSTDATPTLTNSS

[8] = molecular target: T2, Serine/threonine-protein kinase Chk1 (Homo sapiens, UniProt O14757)
T2 sequence (O14757 whole entry): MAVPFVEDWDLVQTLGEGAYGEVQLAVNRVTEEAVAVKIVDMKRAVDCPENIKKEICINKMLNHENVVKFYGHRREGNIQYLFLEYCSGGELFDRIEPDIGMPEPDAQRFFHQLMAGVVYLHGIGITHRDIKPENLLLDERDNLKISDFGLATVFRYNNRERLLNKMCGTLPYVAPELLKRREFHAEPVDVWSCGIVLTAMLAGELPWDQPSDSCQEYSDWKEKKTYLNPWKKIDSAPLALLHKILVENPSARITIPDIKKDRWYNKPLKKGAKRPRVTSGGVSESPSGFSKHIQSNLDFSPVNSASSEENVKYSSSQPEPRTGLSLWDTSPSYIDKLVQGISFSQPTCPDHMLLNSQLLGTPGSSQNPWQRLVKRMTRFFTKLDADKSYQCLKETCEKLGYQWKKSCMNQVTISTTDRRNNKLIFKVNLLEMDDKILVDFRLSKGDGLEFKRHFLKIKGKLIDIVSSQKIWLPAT

[9] = molecular target: Serine/threonine-protein kinase PAK 4 (Homo sapiens, UniProt O96013)
Chain of Serine/threonine-protein kinase PAK 4 (O96013 whole entry): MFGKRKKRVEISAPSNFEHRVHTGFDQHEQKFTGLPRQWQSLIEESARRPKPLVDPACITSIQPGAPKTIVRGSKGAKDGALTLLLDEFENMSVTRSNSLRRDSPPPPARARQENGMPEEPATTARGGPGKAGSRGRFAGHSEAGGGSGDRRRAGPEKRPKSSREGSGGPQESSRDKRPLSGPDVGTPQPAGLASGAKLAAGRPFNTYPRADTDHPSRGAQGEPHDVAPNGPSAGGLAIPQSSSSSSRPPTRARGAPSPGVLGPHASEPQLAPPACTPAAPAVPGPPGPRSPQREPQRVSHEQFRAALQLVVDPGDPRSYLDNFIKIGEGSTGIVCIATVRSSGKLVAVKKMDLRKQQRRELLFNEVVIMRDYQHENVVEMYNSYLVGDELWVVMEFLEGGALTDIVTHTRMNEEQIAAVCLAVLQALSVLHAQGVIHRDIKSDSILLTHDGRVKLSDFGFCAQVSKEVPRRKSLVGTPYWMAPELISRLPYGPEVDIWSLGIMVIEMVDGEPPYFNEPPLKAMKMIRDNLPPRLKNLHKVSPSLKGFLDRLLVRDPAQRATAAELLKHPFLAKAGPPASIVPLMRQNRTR

[10] = molecular target: T3, Serine/threonine-protein kinase 3 (Homo sapiens, UniProt Q13188)
T3 sequence (Q13188 whole entry): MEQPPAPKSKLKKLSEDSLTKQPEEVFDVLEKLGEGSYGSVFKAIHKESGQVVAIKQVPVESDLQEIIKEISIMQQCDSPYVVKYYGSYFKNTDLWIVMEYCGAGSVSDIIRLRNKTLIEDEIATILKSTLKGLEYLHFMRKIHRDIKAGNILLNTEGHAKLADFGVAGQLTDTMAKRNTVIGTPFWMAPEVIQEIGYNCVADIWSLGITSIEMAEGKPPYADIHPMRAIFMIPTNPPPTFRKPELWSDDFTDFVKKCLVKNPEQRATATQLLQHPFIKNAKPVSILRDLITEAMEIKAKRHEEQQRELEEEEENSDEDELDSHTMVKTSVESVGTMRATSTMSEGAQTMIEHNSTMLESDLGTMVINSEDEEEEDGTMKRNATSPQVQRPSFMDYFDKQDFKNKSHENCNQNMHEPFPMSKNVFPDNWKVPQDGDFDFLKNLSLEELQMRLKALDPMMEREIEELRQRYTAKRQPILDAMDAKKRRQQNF

[11] = molecular target: Cyclin-dependent kinase 5 (Homo sapiens, UniProt Q00535)
Chain of Cyclin-dependent kinase 5 (Q00535 whole entry): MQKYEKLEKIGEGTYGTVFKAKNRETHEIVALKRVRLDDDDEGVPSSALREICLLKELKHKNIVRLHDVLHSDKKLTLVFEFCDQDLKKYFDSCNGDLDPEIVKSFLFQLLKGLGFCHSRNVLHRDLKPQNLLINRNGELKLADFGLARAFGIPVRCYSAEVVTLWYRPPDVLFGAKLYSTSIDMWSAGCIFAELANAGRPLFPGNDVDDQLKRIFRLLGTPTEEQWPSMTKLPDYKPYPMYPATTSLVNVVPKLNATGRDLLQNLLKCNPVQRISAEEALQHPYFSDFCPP

Adenosine kinase = Adenosine kinase (Homo sapiens, UniProt P55263)
Chain of Adenosine kinase (P55263 whole entry): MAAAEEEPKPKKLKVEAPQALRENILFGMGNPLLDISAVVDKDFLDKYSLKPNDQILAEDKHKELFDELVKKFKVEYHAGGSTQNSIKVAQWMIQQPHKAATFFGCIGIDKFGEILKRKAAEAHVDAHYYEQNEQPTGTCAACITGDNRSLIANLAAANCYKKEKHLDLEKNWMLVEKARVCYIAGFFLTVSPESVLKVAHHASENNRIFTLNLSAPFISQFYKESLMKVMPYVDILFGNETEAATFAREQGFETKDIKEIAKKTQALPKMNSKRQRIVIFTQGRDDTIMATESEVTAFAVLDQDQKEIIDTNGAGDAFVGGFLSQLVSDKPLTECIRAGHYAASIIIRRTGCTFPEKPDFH

[12] = molecular target: Mitotic checkpoint serine/threonine-protein kinase BUB1 (Homo sapiens, UniProt O43683)
Chain of Mitotic checkpoint serine/threonine-protein kinase BUB1 (O43683 whole entry): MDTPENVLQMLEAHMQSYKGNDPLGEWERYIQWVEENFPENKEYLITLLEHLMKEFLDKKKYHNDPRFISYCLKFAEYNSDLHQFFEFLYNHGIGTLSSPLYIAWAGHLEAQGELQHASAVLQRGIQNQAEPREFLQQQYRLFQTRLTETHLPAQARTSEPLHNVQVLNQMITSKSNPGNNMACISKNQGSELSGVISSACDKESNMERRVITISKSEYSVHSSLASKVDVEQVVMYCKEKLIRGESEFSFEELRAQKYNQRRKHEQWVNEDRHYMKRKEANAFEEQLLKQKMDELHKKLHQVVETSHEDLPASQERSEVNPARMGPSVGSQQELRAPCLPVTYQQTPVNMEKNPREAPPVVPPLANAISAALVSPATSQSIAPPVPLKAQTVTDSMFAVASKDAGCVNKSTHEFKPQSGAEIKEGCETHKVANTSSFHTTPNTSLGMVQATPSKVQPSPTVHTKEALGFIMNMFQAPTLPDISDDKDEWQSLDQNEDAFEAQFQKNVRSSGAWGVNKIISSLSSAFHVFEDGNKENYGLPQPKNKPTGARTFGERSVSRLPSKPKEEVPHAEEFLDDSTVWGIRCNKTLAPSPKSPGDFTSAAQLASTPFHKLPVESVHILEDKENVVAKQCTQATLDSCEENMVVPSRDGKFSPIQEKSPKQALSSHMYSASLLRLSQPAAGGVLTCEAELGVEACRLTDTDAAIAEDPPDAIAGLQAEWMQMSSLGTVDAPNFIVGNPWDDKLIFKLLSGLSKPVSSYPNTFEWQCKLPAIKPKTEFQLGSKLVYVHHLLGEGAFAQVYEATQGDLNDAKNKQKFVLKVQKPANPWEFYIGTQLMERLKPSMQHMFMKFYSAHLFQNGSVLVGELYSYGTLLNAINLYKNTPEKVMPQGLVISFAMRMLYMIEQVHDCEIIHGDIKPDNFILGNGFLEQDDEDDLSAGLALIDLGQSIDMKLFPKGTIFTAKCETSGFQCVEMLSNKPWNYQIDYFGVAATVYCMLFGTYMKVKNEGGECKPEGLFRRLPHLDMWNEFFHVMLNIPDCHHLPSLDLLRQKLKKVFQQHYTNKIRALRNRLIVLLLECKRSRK
Note: in the data inactive means no Kd found up to 30 µM.

Row | SMILES | Kd [1] | Kd [2] | Kd [3] | Kd [4] | Kd [5] | Kd (LIM domain kinase 2) | Kd [6] | Kd (LIM domain kinase 1) | Kd [7] | Kd [8] | Kd [9] | Kd [10] | Kd [11] | Kd (Adenosine kinase) | Kd [12]
1 | O=c1[nH]c([C@@H]2CCCN2)nc2c1oc1ccc(Cl)cc12 | > 30 µM (inactive) | > 30 µM (inactive) | > 30 µM (inactive) | > 30 µM (inactive) | > 30 µM (inactive) | > 30 µM (inactive) | > 30 µM (inactive) | > 30 µM (inactive) | > 30 µM (inactive) | > 30 µM (inactive) | > 30 µM (inactive) | > 30 µM (inactive) | > 30 µM (inactive) | > 30 µM (inactive) | > 30 µM (inactive)
2 | Cc1c(NC(=O)OC[C@@H]2COCCN2)cn2ncnc(Nc3ccc4c(cnn4Cc4cccc(F)c4)c3)c12 [AC-480] | > 30 µM (inactive) | > 30 µM (inactive) | > 30 µM (inactive) | > 30 µM (inactive) | > 30 µM (inactive) | > 30 µM (inactive) | > 30 µM (inactive) | > 30 µM (inactive) | > 30 µM (inactive) | > 30 µM (inactive) | > 30 µM (inactive) | > 30 µM (inactive) | > 30 µM (inactive) | > 30 µM (inactive) | > 30 µM (inactive)
3 | CCc1cc2c(cc1N1CCC(N3CCOCC3)CC1)C(C)(C)c1[nH]c3cc(C#N)ccc3c1C2=O [ALECTINIB] | > 30 µM (inactive) | > 30 µM (inactive) | > 30 µM (inactive) | > 30 µM (inactive) | > 30 µM (inactive) | > 30 µM (inactive) | > 30 µM (inactive) | > 30 µM (inactive) | > 30 µM (inactive) | > 30 µM (inactive) | > 30 µM (inactive) | > 30 µM (inactive) | > 30 µM (inactive) | > 30 µM (inactive) | > 30 µM (inactive)
4 | NC[C@@](O)(c1ccc(Cl)cc1)c1ccc(-c2cn[nH]c2)cc1 [AT-13148] | > 30 µM (inactive) | > 30 µM (inactive) | > 30 µM (inactive) | > 30 µM (inactive) | > 30 µM (inactive) | > 30 µM (inactive) | > 30 µM (inactive) | > 30 µM (inactive) | > 30 µM (inactive) | > 30 µM (inactive) | > 30 µM (inactive) | > 30 µM (inactive) | > 30 µM (inactive) | > 30 µM (inactive) | –
5 | CCOc1ccn(-c2ccc(F)cc2)c(=O)c1C(=O)Nc1ccc(Oc2ccnc(N)c2Cl)c(F)c1 [BMS-777607] | > 30 µM (inactive) | > 30 µM (inactive) | > 30 µM (inactive) | > 30 µM (inactive) | > 30 µM (inactive) | > 30 µM (inactive) | > 30 µM (inactive) | > 30 µM (inactive) | > 30 µM (inactive) | > 30 µM (inactive) | > 30 µM (inactive) | > 30 µM (inactive) | > 30 µM (inactive) | > 30 µM (inactive) | –
6 | COc1cc(Nc2ncc(F)c(Nc3ccc4c(n3)N(COP(=O)(O)O)C(=O)C(C)(C)O4)n2)cc(OC)c1OC [FOSTAMATINIB] | > 30 µM (inactive) | > 30 µM (inactive) | > 30 µM (inactive) | > 30 µM (inactive) | > 30 µM (inactive) | > 30 µM (inactive) | – | > 30 µM (inactive) | > 30 µM (inactive) | > 30 µM (inactive) | > 30 µM (inactive) | > 30 µM (inactive) | > 30 µM (inactive) | > 30 µM (inactive) | > 30 µM (inactive)
7 | C=CC(=O)Nc1cccc(Nc2nc(Nc3ccc(N4CCN(C(C)=O)CC4)cc3OC)ncc2C(F)(F)F)c1 [ROCILETINIB] | > 30 µM (inactive) | > 30 µM (inactive) | > 30 µM (inactive) | > 30 µM (inactive) | > 30 µM (inactive) | > 30 µM (inactive) | > 30 µM (inactive) | > 30 µM (inactive) | > 30 µM (inactive) | > 30 µM (inactive) | > 30 µM (inactive) | > 30 µM (inactive) | > 30 µM (inactive) | > 30 µM (inactive) | –
8 | O=C(O)c1ccc2c(c1)nc(Nc1cccc(Cl)c1)c1ccncc12 [SILMITASERTIB] | > 30 µM (inactive) | > 30 µM (inactive) | > 30 µM (inactive) | > 30 µM (inactive) | > 30 µM (inactive) | > 30 µM (inactive) | > 30 µM (inactive) | > 30 µM (inactive) | 17.3 µM (active) | 6.17 µM (active) | > 30 µM (inactive) | > 30 µM (inactive) | 0.514 µM (active) | > 30 µM (inactive) | –
9 | C=CCN(/C=C1/C(=O)O[C@H](COC)[C@@]2(C)C1=C(O)C(=O)C1=C2[C@H](OC(C)=O)C[C@]2(C)C(=O)CC[C@@H]12)CC=C [SONOLISIB] | > 30 µM (inactive) | – | > 30 µM (inactive) | 0.011 µM | > 30 µM (inactive) | > 30 µM (inactive) | > 30 µM (inactive) | > 30 µM (inactive) | > 30 µM (inactive) | > 30 µM (inactive) | > 30 µM (inactive) | > 30 µM (inactive) | > 30 µM (inactive) | > 30 µM (inactive) | –
10 | CC(C)(O)CC(=O)NCCn1ccc2ncnc(Nc3ccc(Oc4cccc(C(F)(F)F)c4)c(Cl)c3)c21 [TAK-285] | > 30 µM (inactive) | > 30 µM (inactive) | > 30 µM (inactive) | > 30 µM (inactive) | > 30 µM (inactive) | > 30 µM (inactive) | – | > 30 µM (inactive) | > 30 µM (inactive) | > 30 µM (inactive) | > 30 µM (inactive) | > 30 µM (inactive) | > 30 µM (inactive) | > 30 µM (inactive) | > 30 µM (inactive)
11 | Cc1cc(C(=O)Nc2cc(Oc3ccc4nc(NC(=O)C5CC5)cn4n3)ccc2C)n(C)n1 [TAK-593] | > 30 µM (inactive) | > 30 µM (inactive) | > 30 µM (inactive) | > 30 µM (inactive) | > 30 µM (inactive) | > 30 µM (inactive) | > 30 µM (inactive) | > 30 µM (inactive) | > 30 µM (inactive) | > 30 µM (inactive) | > 30 µM (inactive) | > 30 µM (inactive) | > 30 µM (inactive) | – | > 30 µM (inactive)

Source: ChEMBL document CHEMBL3991601, “The target landscape of clinical kinase drugs” (Science, 2017)
